From ChEMBL document CHEMBL1158848, “Synthesis and separation of potential anticancer active dihalocephalomannine diastereomers from extracts of Taxus yunnanensis” (1998)

Experiment: Cytotoxicity against human NCI60 cells
Type: functional

Row | SMILES | GI50 [nM] | TGI [nM] | LC50 (50% lethal concentration) [nM]
1 | CC(=O)O[C@H]1C(=O)[C@@]2(C)[C@H]([C@H](OC(=O)c3ccccc3)[C@]3(O)C[C@H](OC(=O)[C@H](O)[C@@H](NC(=O)c4ccccc4)c4ccccc4)C(C)=C1C3(C)C)[C@]1(OC(C)=O)CO[C@@H]1C[C@@H]2O [PACLITAXEL] | 0.65 | 150 | 
2 | CC(=O)O[C@H]1C(=O)[C@@]2(C)[C@H]([C@H](OC(=O)c3ccccc3)[C@]3(O)C[C@H](OC(=O)[C@H](O)[C@@H](NC(=O)[C@@](C)(Cl)[C@H](C)Cl)c4ccccc4)C(C)=C1C3(C)C)[C@]1(OC(C)=O)CO[C@@H]1C[C@@H]2O | 210 | 6300 | 32000
3 | CC(=O)O[C@H]1C(=O)[C@@]2(C)[C@H]([C@H](OC(=O)c3ccccc3)[C@]3(O)C[C@H](OC(=O)[C@H](O)[C@@H](NC(=O)[C@](C)(Cl)[C@@H](C)Cl)c4ccccc4)C(C)=C1C3(C)C)[C@]1(OC(C)=O)CO[C@@H]1C[C@@H]2O | 140 | 4200 | 29000
